Measurements taken from PubChem BioAssay AID2060902 (Molecular Pharmacology Branch, DTP, NCI, 2025).

Test system: 485368-065-R3-J5-PDC spheroids with HUVEC/MSC, viability
Test: Anticancer human tumor 485368-065-R3-J5-PDC patient-derived pancreatic carcinoma cell line growth inhibition [RAS]
Details: for IC50: curve of first compound; for viability, T/C: stronger effect = lower value
Method in brief: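 Tumour cells grown as complex spheroids with HUVEC endothelial cells and mesenchymal stem cells, treated with RAS pathway inhibitor combinations. Each agent spans half-log steps from near clinical Cmax, or 10 microM where Cmax is unknown.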
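Note: spheroids exposed to agents for seven days before readout.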

Q: For `C=CC(=O)N1CCN(c2nc(OCC3CCCN3C)nc3c(F)c(-c4nc(N)cc(C)c4C(F)(F)F)c(Cl)cc23)C(C)C1` (centres undefined) + C#Cc1c(F)ccc2cc(O)cc(-c3ncc4c(N5CC6CCC(C5)N6)nc(OCC56CCCN5CC(F)C6)nc4c3F)c12, which IC50 (second compound 0.0316 µM) is on record?
A: > 1000 nM

Q: What about the IC50 (second compound 0.1 µM) of the same molecule?
A: > 1000 nM

Q: And the IC50 (second compound 0.316 µM)?
A: > 1000 nM

Q: What about the IC50 (second compound 1 µM) of the same molecule?
A: > 1000 nM

Q: What about the IC50 (second compound 3.16 µM) of the same molecule?
A: 794 nM

Q: And the IC50 (second compound 10 µM)?
A: < 3.16 nM

Q: What about the viability, T/C (second compound 0.0316 µM, first compound 0.00316 µM) of the same molecule?
A: 101%

Q: And the viability, T/C (second compound 0.0316 µM, first compound 0.01 µM)?
A: 95.6%

Q: What about the viability, T/C (second compound 0.0316 µM, first compound 0.0316 µM) of the same molecule?
A: 112%

Q: What about the viability, T/C (second compound 0.0316 µM, first compound 0.1 µM) of the same molecule?
A: 106%

Q: What about the viability, T/C (second compound 0.0316 µM, first compound 0.316 µM) of the same molecule?
A: 100%

Q: And the viability, T/C (second compound 0.0316 µM, first compound 1 µM)?
A: 107%

Q: What about the viability, T/C (second compound 0.1 µM, first compound 0.00316 µM) of the same molecule?
A: 102%

Q: And the viability, T/C (second compound 0.1 µM, first compound 0.01 µM)?
A: 100%

Q: And the viability, T/C (second compound 0.1 µM, first compound 0.0316 µM)?
A: 106%

Q: And the viability, T/C (second compound 0.1 µM, first compound 0.1 µM)?
A: 101%

Q: And the viability, T/C (second compound 0.1 µM, first compound 0.316 µM)?
A: 117%

Q: And the viability, T/C (second compound 0.1 µM, first compound 1 µM)?
A: 110%

Q: What about the viability, T/C (second compound 0.316 µM, first compound 0.00316 µM) of the same molecule?
A: 105%

Q: What about the viability, T/C (second compound 0.316 µM, first compound 0.01 µM) of the same molecule?
A: 104%

Q: What about the viability, T/C (second compound 0.316 µM, first compound 0.0316 µM) of the same molecule?
A: 93.6%

Q: And the viability, T/C (second compound 0.316 µM, first compound 0.1 µM)?
A: 98.5%

Q: And the viability, T/C (second compound 0.316 µM, first compound 0.316 µM)?
A: 103%

Q: What about the viability, T/C (second compound 0.316 µM, first compound 1 µM) of the same molecule?
A: 101%

Q: And the viability, T/C (second compound 1 µM, first compound 0.00316 µM)?
A: 94.3%

Q: And the viability, T/C (second compound 1 µM, first compound 0.01 µM)?
A: 95.9%

Q: What about the viability, T/C (second compound 1 µM, first compound 0.0316 µM) of the same molecule?
A: 98.7%

Q: And the viability, T/C (second compound 1 µM, first compound 0.1 µM)?
A: 97.6%

Q: What about the viability, T/C (second compound 1 µM, first compound 0.316 µM) of the same molecule?
A: 94.8%

Q: And the viability, T/C (second compound 1 µM, first compound 1 µM)?
A: 72.1%

Q: What about the viability, T/C (second compound 3.16 µM, first compound 0.00316 µM) of the same molecule?
A: 89.7%

Q: What about the viability, T/C (second compound 3.16 µM, first compound 0.01 µM) of the same molecule?
A: 83.2%

Q: And the viability, T/C (second compound 3.16 µM, first compound 0.0316 µM)?
A: 81.7%

Q: And the viability, T/C (second compound 3.16 µM, first compound 0.1 µM)?
A: 72.3%

Q: And the viability, T/C (second compound 3.16 µM, first compound 0.316 µM)?
A: 71.2%

Q: And the viability, T/C (second compound 3.16 µM, first compound 1 µM)?
A: 44.4%

Q: And the viability, T/C (second compound 10 µM, first compound 0.00316 µM)?
A: 38.1%

Q: And the viability, T/C (second compound 10 µM, first compound 0.01 µM)?
A: 40.3%

Q: What about the viability, T/C (second compound 10 µM, first compound 0.0316 µM) of the same molecule?
A: 38.3%

Q: What about the viability, T/C (second compound 10 µM, first compound 0.1 µM) of the same molecule?
A: 41.7%

Q: And the viability, T/C (second compound 10 µM, first compound 0.316 µM)?
A: 36.5%

Q: What about the viability, T/C (second compound 10 µM, first compound 1 µM) of the same molecule?
A: 36.6%

Q: Which results are given for `CC1(C)CCC(Nc2ncc(C(F)(F)F)c(-c3c[nH]c4c(P(C)(C)=O)c(C#N)ccc34)n2)CN1` (centres undefined) + C#Cc1c(F)ccc2cc(O)cc(-c3ncc4c(N5CC6CCC(C5)N6)nc(OCC56CCCN5CC(F)C6)nc4c3F)c12?
A: IC50 (second compound 0.0316 µM): 3.18 nM; IC50 (second compound 0.1 µM): 3.83 nM; IC50 (second compound 0.316 µM): 4.39 nM; IC50 (second compound 1 µM): 4.77 nM; IC50 (second compound 3.16 µM): 4.85 nM; IC50 (second compound 10 µM): < 0.949 nM; viability, T/C (second compound 0.0316 µM, first compound 0.000949 µM): 89.8%; viability, T/C (second compound 0.0316 µM, first compound 0.003 µM): 51.1%; viability, T/C (second compound 0.0316 µM, first compound 0.00949 µM): 33.6%; viability, T/C (second compound 0.0316 µM, first compound 0.03 µM): 31%; viability, T/C (second compound 0.0316 µM, first compound 0.0949 µM): 27.3%; viability, T/C (second compound 0.0316 µM, first compound 0.3 µM): 30.2%; viability, T/C (second compound 0.1 µM, first compound 0.000949 µM): 92.7%; viability, T/C (second compound 0.1 µM, first compound 0.003 µM): 53.2%; viability, T/C (second compound 0.1 µM, first compound 0.00949 µM): 38.5%; viability, T/C (second compound 0.1 µM, first compound 0.03 µM): 29.4%; viability, T/C (second compound 0.1 µM, first compound 0.0949 µM): 27.7%; viability, T/C (second compound 0.1 µM, first compound 0.3 µM): 33.6%; viability, T/C (second compound 0.316 µM, first compound 0.000949 µM): 91.5%; viability, T/C (second compound 0.316 µM, first compound 0.003 µM): 56.4%; viability, T/C (second compound 0.316 µM, first compound 0.00949 µM): 36.4%; viability, T/C (second compound 0.316 µM, first compound 0.03 µM): 33.6%; viability, T/C (second compound 0.316 µM, first compound 0.0949 µM): 30.1%; viability, T/C (second compound 0.316 µM, first compound 0.3 µM): 28.8%; viability, T/C (second compound 1 µM, first compound 0.000949 µM): 85.2%; viability, T/C (second compound 1 µM, first compound 0.003 µM): 55.8%; viability, T/C (second compound 1 µM, first compound 0.00949 µM): 40.7%; viability, T/C (second compound 1 µM, first compound 0.03 µM): 36%; viability, T/C (second compound 1 µM, first compound 0.0949 µM): 30.8%; viability, T/C (second compound 1 µM, first compound 0.3 µM): 31.1%; viability, T/C (second compound 3.16 µM, first compound 0.000949 µM): 72.3%; viability, T/C (second compound 3.16 µM, first compound 0.003 µM): 56.3%; viability, T/C (second compound 3.16 µM, first compound 0.00949 µM): 41.2%; viability, T/C (second compound 3.16 µM, first compound 0.03 µM): 36.5%; viability, T/C (second compound 3.16 µM, first compound 0.0949 µM): 36.9%; viability, T/C (second compound 3.16 µM, first compound 0.3 µM): 35.6%; viability, T/C (second compound 10 µM, first compound 0.000949 µM): 41.6%; viability, T/C (second compound 10 µM, first compound 0.003 µM): 38.1%; viability, T/C (second compound 10 µM, first compound 0.00949 µM): 31.4%; viability, T/C (second compound 10 µM, first compound 0.03 µM): 35.4%; viability, T/C (second compound 10 µM, first compound 0.0949 µM): 30.4%; viability, T/C (second compound 10 µM, first compound 0.3 µM): 27.8%
